Here are results for seven compounds from US20260273028A1, “PEROXIDASE COMPOSITIONS CONTAINING IMPROVED ENHANCING AGENTS” (FLEN HEALTH PHARMA NV, priority 2022, published 2026).

One assay deals with S. aureus (ATCC®6538™). The assay can be described thus: Microbial challenge testing in alginogel with GOX+LPO. It counts as cell-based. The settings on record: for antimicrobial efficacy against S. aureus of halide alone, 0 vs 80 minute timepoint: alginogel, halide alone (without enzymes) 0.03% (v/v). The protocol: To determine the ability of an antimicrobial agent to elicit an antimicrobial preserving efficacy in a gel environment, a microbiological challenge test can be performed. Here, the antimicrobial agent is a combination of the natural enzymes GOX+LPO. […] Microbial challenge testing was performed according to the method described in the European Pharmacopoeia current version chapter 5.1.3 ‘Efficacy of antimicrobial preservation’, but with adapted time points (0, 10, 20, 30, 40, 50, 60, 70 and 80 min instead of 0, 2, 7, 14 and 28 days). In brief, for every enhancing agent to be evaluated, a lab-scale alginogel (based on the Flaminal® formulation, but without the original enhancer guaiacol) including 0.0075% GOX+LPO (1:1) was prepared according to standard practices. Enhancing agents were added to the alginogel in a final concentration ranging from 0.01 to 0,00025% (v/w). As a reference, an alginogel including 0.0075% GOX+LPO (1:1) without the addition of any enhancing agent was included (designated as: enzymes only). As a control, an alginogel without both GOX+LPO (1:1) enzyme solution and enhancing agent (designated as: empty gel) as well as an alginogel only containing the enhancing agent only (designated as: enhancing candidate only) were included. After preparation, a homogenous sample of 10 g was transferred into a 50 ml conical tube for each alginogel to be evaluated and microorganism to be tested. For each test microorganism, including S. aureus (ATCC®6538™), P. aeruginosa (ATCC®9027™), C. albicans (ATCC®10231™) and A. niger (ATCC®16404 ™), a microbial suspension of about 10^8 CFU/ml was prepared in sterile diluent (buffered sodium chloride-peptone solution). Then, the 50 ml conical tubes containing the alginogel samples to be evaluated were inoculated with 100 μl of the designated inoculum. At the start (time point 0) and after 0, 10, 20, 30, 40, 50, 60, 70 and 80 min, the number of viable microorganisms per gram product (expressed as CFU/g) was determined by transferring a sample of 0.5 g of the product into a 15 ml conical tube containing 4.5 ml of sterile diluent and applying general dilution and plate count techniques. For each combination evaluated, this test was repeated at least 1-3 times. The collected data were further analyzed in MS Excel. Mean absolute counts (expressed as log CFU/g) were visualized in a graph.
The purpose of the hereby described experiment was to compare the efficacy of antimicrobial activity enhancement of the GOX+LPO (1:1) enzyme combination by ethanolamine and proline in a microbial challenge test using S. aureus. The test was set up as described in the section on ‘challenge testing’ in Example 2.4. The test was repeated at least 3 times.
The purpose of the hereby described experiment was to compare the efficacy of antimicrobial activity of the GOX+LPO (1:1) enzyme combination in the presence of potassium chloride/potassium bromide and potassium iodide. A microbial challenge test using S. aureus was performed. The test was set up as described in the section on ‘challenge testing’ in Example 2.4.

A further assay deals with GOX (Aspergillus niger, UniProt P13006). Nature of the assay: Glucose oxidase (GOX) activity, spectrophotometric assay. The settings on record: cysteine 1-0.1 mg/ml (FIG. 1). The assay is classed as biochemical. As for the experimental part: The natural enzyme GOX is an oxidoreductase that catalyses the oxidation of glucose to gluconic acid and hydrogen peroxide (H2O2) in the presence of water and air. To measure the enzymatic activity of GOX, a standard spectrophotometric assay is performed. In brief, a second oxidoreductase enzyme, peroxidase, and a chromogenic oxygen acceptor, o-dianisidine, are added to the former reaction mix (GOX+glucose+water+air) so that the formation of a coloured compound is achieved that can in turn be measured by spectrophotometry. GOX was tested in 4 different concentrations, i.e., 100, 50, 10 and 1 mg/ml. Each reaction mixture was tested in duplo. In the event GOX activity was evaluated in the presence of a potentiator candidate (=a molecule that might be able to augment the enzymatic activity of GOX), the latter was added in a low and high concentration ranging from 100 to 0.1 mg/ml. The blank consisted of the reaction mix in which the enzymes were absent. After mixing all reaction elements, absorbance was immediately measured with a plate reader (Spectramax ID3, Molecular Devices) every minute for 5 minutes at 35° C. For each combination evaluated, this test was repeated at least 2 times. Results were further analysed in MS Excel and expressed as U/g. Mean blank-corrected data±SD were plotted. Statistical significance compared to the combination without potentiator candidate (reference) was calculated using students' t-tests. Significance is achieved when the obtained p-value is lower than 0,05. Significance levels were defined as p<0.05=*; p<0.01=** and p<0.001=***.

The subject of assay [1] is Pseudomonas aeruginosa ATCC®9027™. Nature of the assay: MIC determination, broth microdilution, GOX+LPO with potentiator candidate. The assay is classed as cell-based. The settings on record: P. aeruginosa; guaiacol added as enhancing agent. As for the experimental part: (§1) The minimum inhibitory concentration (MIC) is defined as the lowest concentration of an antimicrobial agent that results in a complete inhibition of microbial growth (determined via visual evaluation or absorbance measurements) after overnight incubation. This endpoint measurement is used to define the microbial susceptibility towards an antimicrobial agent. Here, the antimicrobial agent is a combination of the natural enzymes GOX+LPO.
(§2) To determine the MIC of the described combinations, a classical broth microdilution assay was used to determine the susceptibility of a series of microbes commonly detected in infected wounds, including (a) the Gram-positive bacterium Staphylococcus aureus ATCC® 6538™ (results shown below), (b) the Gram-negative bacterium Pseudomonas aeruginosa ATCC®9027™ (results shown below), (c) the yeast Candida albicans ATCC®10231™ (results shown below), and (d) the fungus Aspergillus niger ATCC®16404™ (results shown below). In brief, a […] serial dilution of the enzymatic GOX+LPO solution was prepared in a transparent, flat-bottomed 96-well test plate with final concentrations ranging from 0.005 to 0.00000977% (v/v). To each well, a fixed volume of the enzymatic substrate containing 3,3% (w/v) glucose and 0,084% (w/v) potassium iodide, as well as the microbial inoculum with an OD600 of 0.1 was added. In the event the enzyme combination was evaluated in the presence of a potentiator candidate, the latter was added together with the enzymatic substrate in a final concentration ranging from 100 to 0,00125% (v/v). For each combination evaluated, a blank (no addition of microbial inoculum) was included. Positive (inoculum only) and negative (background solution only) were included to evaluate the performance of the test and to select the enzymatic GOX+LPO concentration at which no microbial growth is detected (i.e., absorbance equal to that of the background solution only). Then, the 96-well test plate was incubated for 24 hours at 37° C. (S. aureus, P. aeruginosa and C. albicans) or 25° C. (A. niger). After incubation, the absorbance of each well was measured using a plate spectrophotometer (Spectramax ID3, Molecular Devices). For each combination evaluated, this test was repeated at least 5 times. The collected data were further analyzed in MS Excel. Mean absorbance data were visualized in a table format in which the MIC was highlighted.
(In general: In broth dilution the organism is exposed to a series of concentrations in liquid medium.)

The subject of assay [2] is Staphylococcus aureus ATCC® 6538™. Described as above. The note with it: S. aureus; guaiacol added as enhancing agent. It counts as cell-based. The protocol: as §1, §2
The subject of assay [3] is Pseudomonas aeruginosa ATCC®9027™. Nature of the assay: MBC determination, broth microdilution with CFU enumeration. The note with it: P. aeruginosa; guaiacol added as enhancing agent. The assay is classed as cell-based. The protocol:
The minimal bactericidal concentration (MBC) is defined as the lowest concentration of an antimicrobial agent that results in a complete killing of the microbial population (determined via standard CFU enumeration techniques) after overnight incubation. This endpoint measurement is used, together with the MIC (see above), to define the microbial susceptibility towards an antimicrobial agent. Here, the antimicrobial agent is a combination of the natural enzymes GOX+LPO.
To determine the MBC of the described combinations, a classical broth microdilution assay combined with standard CFU enumeration techniques was used to determine the susceptibility of a series of microbes commonly detected in infected wounds, including (a) the Gram-positive bacterium Staphylococcus aureus ATCC® 6538™ (results shown below), (b) the Gram-negative bacterium Pseudomonas aeruginosa ATCC®9027™ (results shown below), (c) the yeast Candida albicans ATCC®10231™ (results shown below), and (d) the fungus Aspergillus niger ATCC®16404™ (results shown below). In brief, the broth microdilution assay was set up as previously described (see 2.1). After incubation, the MBC was determined by investigating the presence of viable microorganisms at the MIC and following higher concentrations (MICx2, MICx4, and so on) using standard CFU enumeration techniques. For each combination evaluated, this test was repeated at least 5 times. The collected data were further analyzed in MS Excel. Mean concentration data (expressed as log CFU/ml) were visualized in a table format in which the MBC was highlighted.

The next assay has as its target Lactoperoxidase (Bos taurus, UniProt P80025). The assay can be described thus: Lactoperoxidase (LPO) activity, spectrophotometric assay (ABTS). The assay is classed as biochemical. The settings on record: concentration not given. As for the experimental part:
Lactoperoxidase is a member of the heme peroxidase family of enzymes that, together with a catalytic anion (such as I^−, derived from KI, present in the substrate), will catalyse the oxidation of H2O2, leading to hypojodite (IO^−). This hypojodite is a reactive oxygen species (ROS). To measure the enzymatic activity of LPO, a standard spectrophotometric assay is performed. In brief, H2O2 combined with 2,2′-azino-bis (3-ethylbenzothiazoline-6-sulfonzuur (ABTS) is catalysed by LPO so that the formation of a coloured compound is achieved that can in turn be measured by spectrophotometry. LPO was tested in 3 different concentrations, i.e., 50, 10 and 1 mg/ml. Each reaction mixture was tested in duplo. In the event LPO activity was evaluated in the presence of a potentiator candidate (=a molecule that might be able to augment the enzymatic activity of LPO), the latter was added in a low and high concentration ranging from 100 to 0.1 mg/ml. The blank consisted of the reaction mix in which H2O2 was absent. The absorbance was immediately measured with a plate reader (Spectramax ID3, Molecular Devices) every 12 seconds for 5 minutes at 20° C. For each combination evaluated, this test was repeated at least 2 times. Results were further analysed in MS Excel and expressed as U/g. Mean blank-corrected data±SD were plotted. Statistical significance compared to the combination without potentiator candidate (reference) was calculated using students' t-tests. Significance is achieved when the obtained p-value is lower than 0,05. Significance levels were defined as p<0.05=*; p<0.01=** and p<0.001=***.

Sequence of GOX (P13006 17-605): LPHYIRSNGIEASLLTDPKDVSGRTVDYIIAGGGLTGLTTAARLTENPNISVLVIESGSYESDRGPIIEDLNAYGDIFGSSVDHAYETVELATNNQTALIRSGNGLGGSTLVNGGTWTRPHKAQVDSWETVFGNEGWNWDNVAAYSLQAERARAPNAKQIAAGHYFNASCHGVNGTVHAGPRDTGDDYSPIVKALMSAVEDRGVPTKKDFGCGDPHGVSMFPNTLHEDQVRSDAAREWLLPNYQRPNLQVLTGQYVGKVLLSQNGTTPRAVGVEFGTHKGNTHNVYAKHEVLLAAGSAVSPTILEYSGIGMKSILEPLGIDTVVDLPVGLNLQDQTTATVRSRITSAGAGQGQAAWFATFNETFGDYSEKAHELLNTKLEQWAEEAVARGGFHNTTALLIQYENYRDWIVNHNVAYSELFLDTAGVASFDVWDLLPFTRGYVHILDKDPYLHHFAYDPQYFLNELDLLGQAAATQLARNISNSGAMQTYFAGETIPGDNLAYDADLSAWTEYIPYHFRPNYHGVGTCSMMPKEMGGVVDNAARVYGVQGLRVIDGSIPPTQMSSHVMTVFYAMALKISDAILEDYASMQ

As for `[Br-].[K+]` [KBr, potassium bromide, reference compound], in the assay with S. aureus (ATCC®6538™), the “antimicrobial efficacy against S. aureus of halide alone, 0 vs 80 minute timepoint” value is recorded as “did not result in any difference in antimicrobial efficacy”. Same read-out and setting: the value for `[Cl-].[K+]` [KCl, potassium chloride, reference compound] was “did not result in any difference in antimicrobial efficacy”.

For the compound `[I-].[K+]` [KI, potassium iodide], the “time to complete reduction of absolute S. aureus counts” value is on record as 70 min in the assay on S. aureus (ATCC®6538™) (alginogel with GOX+LPO (1:1), halide 0,03% (v/v)) and 80 min with S. aureus (ATCC®6538™) (alginogel with GOX+LPO (1:1), halide 0,003% (v/v)). Besides, the “antimicrobial efficacy against S. aureus of halide alone, 0 vs 80 minute timepoint” value in the assay with S. aureus (ATCC®6538™) is listed as “did not result in any difference in antimicrobial efficacy”.

As for `N[C@@H](CS)C(=O)O` [cysteine, reference compound], the “GOX activity compared to reference” value at GOX was “significant lower GOX activity”. Take `NCCO` [ethanolamine, reference compound]: the “exposure time to complete reduction of absolute S. aureus counts (average)” value in the assay with S. aureus (ATCC®6538™) (alginogel with GOX+LPO (1:1), enhancer 0,0005% (v/v)) is listed as 70 min.

In the case of `COc1ccccc1O` [guaiacol, reference compound], the “MIC: GOX+LPO enzyme solution needed to completely inhibit growth” value in assay [1] is recorded as 0.00125 % (v/v); in assay [2] it was 0.0000781 % (v/v). The “MBC: GOX+LPO enzyme solution needed” value in assay [3] is given as 0.00125 % (v/v).

In the case of `CC(C)C[C@H](N)C(=O)O` [leucine, reference compound], the “LPO activity compared to reference” value on Lactoperoxidase is “did not result in a significant difference”.
